Here are results for eight compounds from PMC7702303, “Biochemical and transcript level differences between the three human phosphofructokinases show optimisation of each isoform for specific metabolic niches” (Biochemical Journal, 2020).

“And” between values parts separate entries of the source, which are not always exact repeats. Identical values can stand only once. Like-named read-outs stand apart in the source and are kept apart here.

One assay concerns the target T1, recombinant human PFK-M (Homo sapiens, UniProt P08237).
T1 construct: made in house; host or cells: PFK-deficient Saccharomyces cerevisiae
T1 sequence (P08237 1-780): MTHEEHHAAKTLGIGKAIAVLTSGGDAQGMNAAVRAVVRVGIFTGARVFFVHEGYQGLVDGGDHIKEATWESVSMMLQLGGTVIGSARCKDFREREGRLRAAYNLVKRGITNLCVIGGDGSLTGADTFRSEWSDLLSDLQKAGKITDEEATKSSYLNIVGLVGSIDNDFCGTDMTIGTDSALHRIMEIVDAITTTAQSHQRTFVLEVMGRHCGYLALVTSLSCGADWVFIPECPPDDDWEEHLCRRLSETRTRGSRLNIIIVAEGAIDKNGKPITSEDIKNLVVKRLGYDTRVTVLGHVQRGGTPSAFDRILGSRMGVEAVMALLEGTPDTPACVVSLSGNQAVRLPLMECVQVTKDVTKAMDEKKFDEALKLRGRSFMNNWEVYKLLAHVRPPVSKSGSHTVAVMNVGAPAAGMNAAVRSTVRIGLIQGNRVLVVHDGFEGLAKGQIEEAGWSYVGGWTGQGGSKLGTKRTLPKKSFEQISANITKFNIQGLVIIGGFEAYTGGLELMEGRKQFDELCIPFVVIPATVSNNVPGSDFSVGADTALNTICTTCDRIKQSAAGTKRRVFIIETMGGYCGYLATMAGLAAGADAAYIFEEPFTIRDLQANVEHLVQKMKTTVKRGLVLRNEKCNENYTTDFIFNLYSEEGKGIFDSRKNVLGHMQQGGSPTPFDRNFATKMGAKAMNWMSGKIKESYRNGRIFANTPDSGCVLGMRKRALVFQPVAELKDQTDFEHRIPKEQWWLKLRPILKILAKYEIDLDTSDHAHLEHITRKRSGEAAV
In words: ALDO-TIM-G3PDH enzyme-linked kinetic assay, PFK-M. Also on record: VmaxATP + modulator / VmaxF6P + modulator / K0.5ATP + modulator / K0.5F6P + modulator: unit not given here. The class given is biochemical. The procedure: Recombinant human PFKs were expressed in PFK-deficient Saccharomyces cerevisiae and purified using the methods described previously, adapting earlier materials and protocols. Production of PFK intended for use in ATP titration experiments used 1 mM F6P as a tetramer stabilising agent in protein purification and storage buffers. Production of PFK intended for use in F6P titration experiments used 1 mM ATP as a tetramer stabilising agent in protein purification and storage buffers. Experimental details on the purification and characterisation procedures including figures showing SDS–PAGE gels of the highly pure PFKs used in the kinetic experiments described in this work have been recently published.
Assay buffer consisted of 50 mM TEA, 100 mM KCl, 10 mM MgCl2, 1 mM Tris(2-carboxyethyl)phosphine hydrochloride (TCEP), 10% glycerol, pH 7.4. Assay mix consisted of 5 units/ml glycerol-3-phosphate dehydrogenase (G3PDH, Sigma–Aldrich G6880), 2.5 units/ml aldolase (Sigma–Aldrich A2714), 25 units/ml triosephosphate isomerase (TIM, Sigma–Aldrich T6258), and 1.25 mM NADH. ATP and F6P were obtained from Sigma–Aldrich (A2383 and F3627, respectively). For ATP titrations, 38 µl of buffer or ligand were added to a clear non-binding 96-well plate. 40 µl of assay mix containing 10 mM F6P (final concentration 4 mM) was added and the plate was incubated at 25°C for 5 min. An amount of 2 µl of PFK isoforms were added to each well from stock concentrations of 150 µg/ml and the reaction was immediately started with 20 µl of ATP at varying concentrations. For F6P titrations, 30 µl of buffer or ligand was added to a clear non-binding 96-well plate. An amount of 40 µl of assay mix containing 1.25 mM ATP (final concentration 0.5 mM) was added and the plate was incubated at 25°C for 5 min. An amount of 5 µl of PFK isoforms were added to each well from stock concentrations of 200 µg/ml and the reaction was immediately started with 20 µl F6P at varying concentrations. All ligands and substrates (including ATP) were used at pH 7.4. All metabolites were obtained from Sigma–Aldrich unless otherwise stated. […] A SpectraMax M5 Multi-Mode Microplate Reader was used to measure A340nm at 13 s intervals for 10 min. All experiments were performed in triplicate unless otherwise stated.
Time-dependent absorbance change was converted into rate of NADH oxidation (µM s^−1) or specific activity (µmol min^−1 mg protein^−1) using the Beer-Lambert law (molar extinction coefficient of NADH 6.22 mM^−1 cm^−1). The initial rate of reaction was used to avoid accumulation of ADP, which activates PFK, interfering with the determination of kinetic properties. Non-linear regression analysis was performed on substrate titration data using GraphPad Prism 7, with curves fitted using allosteric sigmoidal models, enabling determination of steady-state kinetic values.

For another assay, the system named is PFKP. The conditions noted are these: cited from earlier work.
Another assay relates to PFKL. Particulars: cited from earlier work.
A further assay relates to PFKM. The conditions noted are these: cited from earlier work; for IC50 or AC50 (activator) / IC50: PFKM; for IC50: read-out: IC50 or AC50 (inhibitor); for KmF6P: PFK-M.
The next assay deals with PFK-P (HeLa cell). Also on record: method as in Moreno-Sanchez et al(10) 2012. The conditions noted are these: tissue supernatant, ATP 550-700M, ref Moreno-Sanchez et al(10) 2012; cited from earlier work.
Another assay relates to PFK-M (rat heart). Also on record: method as in Moreno-Sanchez et al(10) 2012. The conditions noted are these: tissue supernatant, ATP 550-700M, ref Moreno-Sanchez et al(10) 2012; cited from earlier work.
Where [1] appears, read: ref Sanchez-Martinez et al., 2000.
Where [2] appears, read: ATP titration, F6P 4 mM, n = 6, mean (SD).
[3] abbreviates: ref Foe and Kemp, 1985, read-out: IC50 or AC50 (inhibitor).
The mark [4] stands for this setting: ref Vora 1985, read-out: IC50 or AC50 (inhibitor).
[5] abbreviates: modulator 10 µM, ATP 0.5mM, N=3, mean (SD).
Setting [6] is: modulator 10 µM, F6P 4mM, N=3, mean (SD).
The mark [7] stands for this setting: GTP titration, F6P 4 mM, n = 3, mean (SD).

For the compound `Nc1ncnc2c1ncn2[C@@H]1O[C@H](COP(=O)(O)OP(=O)(O)O)[C@@H](O)[C@H]1O` [ADP], the “effect on PFK activity, in words” value on recombinant human PFK-M is “inhibiting”. On recombinant human PFK-M (modulator 600 µM), the “change in kcat^ATP/K0.5^ATP compared with control PFK without modulator” value is given as −52% and the “change in kcat^F6P/K0.5^F6P compared with control PFK without modulator” value is −13%.

For the compound `Nc1ncnc2c1ncn2[C@@H]1O[C@H](COP(=O)(O)O)[C@@H](O)[C@H]1O` [AMP], the IC50 or AC50 (activator) in the assay on PFKP (ref Foe and Kemp, 1985) is 75 µM; with PFKP (setting [1]), 8 µM; in the assay with PFKL (ref Foe and Kemp, 1985), 10 µM; in the assay with PFKM (ref Foe and Kemp, 1985), 10 µM. Further, the “decrease in K0.5^F6P by AMP” value at recombinant human PFK-M (F6P titration) was “near two-fold decrease”. Besides, the “change in kcat^ATP/K0.5^ATP compared with control PFK without modulator” value on recombinant human PFK-M (modulator 1200 µM) was −12%. At recombinant human PFK-M (modulator 1200 µM), the “change in kcat^F6P/K0.5^F6P compared with control PFK without modulator” value is recorded as −25%.

On to `Nc1ncnc2c1ncn2[C@@H]1O[C@H](COP(=O)(O)OP(=O)(O)OP(=O)(O)O)[C@@H](O)[C@H]1O` [ATP], for which the “decrease in specificity constant (ATP inhibition)” value on recombinant human PFK-M (1 mM ATP compared with 0.5 mM ATP) was 21%. For the same compound, the “increase in specific activity” value at recombinant human PFK-M (ATP concentration from 0.25 mM to 0.5 mM) amounted to 23%. In addition, the “decrease in specific activity” value at recombinant human PFK-M (ATP concentration from 0.5 mM to 1 mM) was 21%. Further, at recombinant human PFK-M (setting [2]), the “K0.5^ATP” value is 151 µM and 152 µM and 151.8 (10.0) µM; the “Vmax^ATP” value was 38.4 (0.9) µmoles/min.mg; the “kcat^ATP” value is reported as 56.0 (1.2) s^−1; the “kcat^ATP/K0.5^ATP” value is 0.37 s^−1 µM^−1 and 0.37 (0.12) s^−1 µM^−1. Further, at recombinant human PFK-M (Hill value, ATP titration, F6P 4 mM, n = 6, mean (SD)), the “h (ATP)” value is reported as 1.03 (0.05).

On to `O=C(O)CC(O)(CC(=O)O)C(=O)O` [Citrate], for which the concentration for half-maximal inhibition (IC50) in the assay with PFKP (setting [3]) was 750 µM; in the assay on PFKP (ref Sanchez-Martinez et al., 2000, read-out: IC50 or AC50 (inhibitor)), 400 µM; in the assay with PFKP (setting [4]), 80 µM; in the assay with PFKL (setting [3]), over 2000 µM; with PFKL (setting [4]), 180 µM; in the assay on PFKM (ref Foe and Kemp, 1985) it was 100 µM. Also, the IC50 in the assay on PFKM (ref Vora 1985) was 130 µM; at recombinant human PFK-M (dose-response, read-out: IC50^citrate), 982 ± 109 µM. Moreover, the “change in kcat^ATP/K0.5^ATP compared with control PFK without modulator” value on recombinant human PFK-M (modulator 600 µM) was “+5%”. At recombinant human PFK-M (modulator 600 µM), the “change in kcat^F6P/K0.5^F6P compared with control PFK without modulator” value was −36%.

For `O=C(CO)[C@@H](O)[C@H](O)[C@H](O)COP(=O)(O)O` [F6P, fructose 6-phosphate], the KmF6P with PFK-P (HeLa cell) is 1100 µM; in the assay on PFKM (partially purified tissue, ATP 1000M, ref Dunaway et al(8) 1988), 2000 µM; in the assay with PFKM (purified tissue, ATP 500M, ref Meienhofer et al(7) 1980) it was 1800 µM; in the assay on PFKM (recombinant (yeast), ATP 5000M, ref Sanchez-Martinez et al(9) 2000), 2000 µM; in the assay with PFK-M (rat heart), 145 µM. The “K0.5^F6P” value at recombinant human PFK-M (F6P titration, ATP 0.5 mM, n = 6, mean (SD)) was 147 µM and 147.1 (13.6) µM.

With `O=P(O)(O)OC[C@H]1O[C@@](CO)(OP(=O)(O)O)[C@@H](O)[C@@H]1O` [F26BP, fructose 2,6-bisphosphate], the IC50 or AC50 (activator) in the assay with PFKP (ref Foe and Kemp, 1985) was 4.5 µM; in the assay with PFKP (unit inferred, ref Vora 1985), 100 µM; with PFKL (ref Foe and Kemp, 1985) it was 0.05 µM; in the assay with PFKL (ref Van Schaftingen et al 1981), 0.04 µM; in the assay with PFKL (unit inferred, ref Vora 1985), 100 µM; in the assay on PFKM (ref Foe and Kemp, 1985), 0.05 µM. In addition, in the assay on PFKM (unit inferred, ref Vora 1985), the IC50 or AC50 (activator) was 10 µM. Also, in the assay on PFKP (ref Sanchez-Martinez et al., 2000, read-out: Kact), the EC50 was 2.2 µM. The “effect on PFK activity, in words” value on recombinant human PFK-M is listed as “strongly activated”. Also, the “allosteric constant K0.5^ATP+F26BP/K0.5^ATP” value on recombinant human PFK-M (ATP titration) is listed as 1.10. On recombinant human PFK-M (activation, read-out: AC50^F26BP), the concentration at half-maximal activity (AC50) is 6.27 µM. In addition, the “change in kcat^ATP/K0.5^ATP compared with control PFK without modulator” value at recombinant human PFK-M (modulator 10 µM) is given as −7.4%. In addition, the “change in kcat^F6P/K0.5^F6P compared with control PFK without modulator” value at recombinant human PFK-M (modulator 10 µM) is reported as “+82%”. The “K0.5F6P + modulator” value at recombinant human PFK-M (setting [5]) is on record as 109.6 (5.3). For the same compound, the “VmaxF6P + modulator” value at recombinant human PFK-M (setting [5]) was 5.81 (0.09). Besides, the “K0.5ATP + modulator” value at recombinant human PFK-M (setting [6]) was 165.2 (9.2). Further, at recombinant human PFK-M (setting [6]), the “VmaxATP + modulator” value is recorded as 38.80 (0.75).

Regarding `Nc1nc2c(ncn2[C@@H]2O[C@H](COP(=O)(O)OP(=O)(O)OP(=O)(O)O)[C@@H](O)[C@H]2O)c(=O)[nH]1` [GTP], on recombinant human PFK-M (setting [7]), the “K0.5^GTP” value is 97 µM and 96.7 (8.0) µM; the “Vmax^GTP” value is 17.82 (0.44) µmoles/min.mg; the “kcat^GTP” value is 26.0 (0.6) s^−1; the “kcat^GTP/K0.5^GTP” value was 0.27 s^−1 µM^−1 and 0.27 (0.08) s^−1 µM^−1. The “h (GTP)” value on recombinant human PFK-M (Hill value, GTP titration, F6P 4 mM, n = 3, mean (SD)) is reported as 1.19 (0.12).

As for `C=C(OP(=O)(O)O)C(=O)O` [PEP, phosphoenolpyruvate], the Ki on PFKP (setting [1]) was 2780 µM. At recombinant human PFK-M (modulator 1100 µM), the “change in kcat^ATP/K0.5^ATP compared with control PFK without modulator” value is −11% and the “change in kcat^F6P/K0.5^F6P compared with control PFK without modulator” value is listed as −7%.

The term IC50 denotes the point on the concentration scale where inhibition reaches its midpoint. In general, AC50 refers to the concentration giving half of the maximal activity seen. A word on the Ki: it is a measure of affinity in units of concentration, obtained from inhibition or displacement.
